Measured values reported in US20190008870A1, “COMPOSITIONS AND METHODS FOR LIPID METABOLISM DISORDER” (JANSFAT BIOTECHNOLOGY CO., LTD., priority 2016, published 2019).

Tests used:
eNOS = assay: IHC staining of eNOS in epididymal fat pads; format: in vivo, mice; settings: HFD 14 weeks, KMUP-1 2.5 mg/kg/day, Control 50.5
Method: (§1) For IHC of MMP-9/TNFα, HSL/p-HSL/ATGL and eNOS/IL-10, antigen retrieval of de-paraffinated sections was performed in Dako target retrieval solution, pH 9.0, in a vegetable steamer followed by the quenching of endogenous peroxidase activity with 3.0% H2O2 in methanol. Sections were then incubated with specific primary antibodies overnight at 4° C. in a humidified chamber. The antibodies used included rabbit polyclonal anti-eNOS (1:50 dilution) (Abcam, Cambridge, UK) or rabbit monoclonal anti-cleaved caspase-3 (1:50 dilution) (Cell Signaling, U.S.A.). The sections were then examined using a DAKO REAL EnVision™ Detection System kit (DAKO, Carpinteria, Calif., U.S.A.) and counterstained with hematoxylin. Images were obtained through a Nikon Eclipse TE200-S microscope.

TNF-α = assay: IHC staining of TNF-α in epididymal fat pads; format: in vivo, mice; settings: HFD 14 weeks, KMUP-1 2.5 mg/kg/day, Control 36
Method: as §1

fatty liver = assay: Gross morphology and H&E staining of liver of HFD mice; format: in vivo
Method: Mice liver and epididymal fat pads were cut and soaked in formalin, dehydrated through graded alcohols and embedded in paraffin. Specimens of liver tissues and epididymal fat pads fixed with formalin (4%) were embedded in paraffin for one hour at 4° C., cut into 4-μm-thick sections, and subjected to H&E staining before examination by light microscope.

Cn1c(=O)c2c(ncn2CCN2CCN(c3ccccc3Cl)CC2)n(C)c1=O [KMUP-1, 7-[2-[4-(2-chlorophenyl)piperazinyl]ethyl]-1,3-dimethylxanthine]
Immunorespons percentages, eNOS (eNOS): 39%
Immunorespons percentages, TNF-α (TNF-α): 22%
Fatty liver (gross morphology) (fatty liver; drinking 2.5 mg/200 ml water, protective group): markedly decreased
fat globules and Mallory's hyaline bodies (H&E staining of liver) (fatty liver; oral 2.5 mg/kg, last 6 weeks/14 weeks): reduced
